Assays:
[1] = target: T1, CYP1A2 (Canis lupus familiaris, UniProt P56592); test: CYP1A2 fluorometric activity assay in beagle hepatic microsomes; format: in vitro ADME; conditions: 15 min at 37 °C
T1 construct: endogenous in cells; host or cells: beagle hepatocytes
T1 sequence (P56592 1-512): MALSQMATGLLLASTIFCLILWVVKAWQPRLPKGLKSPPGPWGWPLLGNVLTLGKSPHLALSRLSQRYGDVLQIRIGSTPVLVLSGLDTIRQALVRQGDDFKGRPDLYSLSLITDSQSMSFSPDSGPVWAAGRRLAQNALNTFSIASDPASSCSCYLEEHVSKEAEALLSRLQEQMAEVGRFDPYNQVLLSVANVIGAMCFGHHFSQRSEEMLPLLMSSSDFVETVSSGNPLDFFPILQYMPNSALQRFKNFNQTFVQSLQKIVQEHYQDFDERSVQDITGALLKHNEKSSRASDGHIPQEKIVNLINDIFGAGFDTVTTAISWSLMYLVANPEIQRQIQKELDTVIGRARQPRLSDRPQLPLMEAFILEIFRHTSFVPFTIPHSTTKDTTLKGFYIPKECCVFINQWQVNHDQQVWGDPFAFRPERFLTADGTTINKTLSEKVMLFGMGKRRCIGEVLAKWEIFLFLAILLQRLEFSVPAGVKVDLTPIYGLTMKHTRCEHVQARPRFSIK
Experimental: (§1) The Biovision CYP assay (BioVision, Inc., Kampenhout, Belgium) utilizes a non-fluorescent CYP1A2 substrate capable of transforming into a highly fluorescent metabolite, which can be detected in the visible range. α-naphthoflavone was used as a CYP1A2 reference inhibitor at 6 µM during the experiments. Rat (Sprague–Dawley) and beagle (Gibco, Biocenter, Szeged, Hungary, protein concentration: 20 mg/mL) hepatic microsomal preparations were prepared separately by mixing 25 µL of the obtained rat or beagle microsomal suspension with 2425 µL assay buffer and with 50 µL NADPH generating system (100×). In the case of the cynomolgus monkey microsomal suspension (Primacyt, Schwerin, Germany, protein concentration: 5 mg/mL), the following volumes were applied: in addition to 100 µL of monkey microsomal suspension, the amount of assay buffer and the NADPH generating system were adjusted in order to ensure the original ratios of these components to reach a final volume of 2500 µL. Rat, beagle, and cynomolgus monkey microsomal suspension aliquots (50 µL) were treated with the protease inhibitor 20 µL, 0–1000 µM), the reference compound α-naphthoflavone (20 µL, 30 µM), or the assay buffer without test compounds (20 µL, background control) for 15 min at 37 °C. After incubation, 30 µL of the appropriate CYP1A2 substrate/NADP+ mixture was added to each well, yielding a final reaction volume of 100 µL/well. The protein contents of the obtained microsomes were analysed using bicinchoninic acid protein assay kit (Pierce BCA kit, Thermo Fisher Scientific, Waltham, MA, USA). […] The fluorescence intensities were measured with a fluorometer (Victor X2 2030, Perkin Elmer, Waltham, MA, USA), using λEx/Em = 406/468 nm.

[2] = target: T2, CYP1A2 (Macaca fascicularis, UniProt O77809); conditions: 10 µM
T2 sequence (O77809 1-516): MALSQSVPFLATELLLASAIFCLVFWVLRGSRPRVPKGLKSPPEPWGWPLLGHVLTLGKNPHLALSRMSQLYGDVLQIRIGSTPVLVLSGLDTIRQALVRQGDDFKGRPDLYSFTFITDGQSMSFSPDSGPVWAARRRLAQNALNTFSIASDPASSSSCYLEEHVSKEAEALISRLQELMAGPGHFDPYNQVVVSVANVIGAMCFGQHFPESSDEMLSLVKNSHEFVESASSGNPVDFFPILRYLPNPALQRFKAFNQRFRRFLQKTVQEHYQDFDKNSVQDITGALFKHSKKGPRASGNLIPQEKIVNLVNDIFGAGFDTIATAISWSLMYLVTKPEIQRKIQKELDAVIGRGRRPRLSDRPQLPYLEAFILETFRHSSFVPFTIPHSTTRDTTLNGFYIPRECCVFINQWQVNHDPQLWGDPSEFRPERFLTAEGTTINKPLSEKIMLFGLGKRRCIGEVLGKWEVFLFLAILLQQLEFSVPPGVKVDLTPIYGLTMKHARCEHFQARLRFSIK
Experimental: (§4) For the measurements of CYP1A2 activities, hepatocytes were grown on 24-well collagen-coated membrane inserts (Costar Transwell-PTFE membrane, 6.5 mm, pore size: 0.4 µm, Merck, Darmstadt, Germany). […] The determination of the CYP1A2 activities were performed using the P450-Glo CYP450 Assay (Promega, Madison, WI, USA) according to the manufacturer’s instructions.

[3] = target: T3, CYP1A2 (Rattus norvegicus, UniProt P04799); test: CYP1A2 luminescent (P450-Glo) activity assay in rat hepatocytes; format: cell-based; set-up: endogenous in cells; host or cells: rat hepatocytes; conditions: positive control at 10 µM
T3 sequence (P04799 1-513): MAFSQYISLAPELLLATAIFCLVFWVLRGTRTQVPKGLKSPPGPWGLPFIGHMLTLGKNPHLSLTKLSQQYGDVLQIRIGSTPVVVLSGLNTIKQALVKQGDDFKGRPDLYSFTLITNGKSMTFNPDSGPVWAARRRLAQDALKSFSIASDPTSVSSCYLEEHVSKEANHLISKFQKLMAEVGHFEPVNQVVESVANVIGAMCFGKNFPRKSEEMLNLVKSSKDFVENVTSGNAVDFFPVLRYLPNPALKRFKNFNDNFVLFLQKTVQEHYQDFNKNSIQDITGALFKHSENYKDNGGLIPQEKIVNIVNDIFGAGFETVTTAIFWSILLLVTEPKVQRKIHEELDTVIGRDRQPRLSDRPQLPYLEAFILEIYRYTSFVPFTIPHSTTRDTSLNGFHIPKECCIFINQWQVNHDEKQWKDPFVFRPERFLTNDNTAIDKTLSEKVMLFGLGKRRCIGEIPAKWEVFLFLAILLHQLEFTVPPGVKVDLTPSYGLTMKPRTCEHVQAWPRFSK
Experimental: as §4

[4] = target: T3, CYP1A2; test: CYP1A2 fluorometric activity assay in rat hepatic microsomes; format: in vitro ADME, rat (Sprague–Dawley); set-up: Rat (Sprague–Dawley) and beagle (Gibco, Biocenter, Szeged, Hungary, protein concentration: 20 mg/mL) hepatic microsomal preparations; tissue Gibco, Biocenter, Szeged, Hungary; host or cells: liver (hepatic microsomes), Sprague-Dawley rat; conditions: 15 min at 37 °C
Experimental: as §1

[5] = target: T1, CYP1A2; format: cell-based; conditions: dog, 10 µM
Experimental: as §4

[6] = 60 min microsomal stability assay (UPLC-MS/MS), rat liver microsomes; format: in vitro ADME; conditions: rat microsomes, 50 µM, 0.6 mg/mL protein, mean ± SD (n = 3)
Experimental: (§2) Rat, beagle (Gibco, Biocenter, Szeged, Hungary), and cynomolgus monkey (Primacyt, Schwerin, Germany) liver microsomes were exposed to inhibitors MI-432, MI-463, MI-482, or MI-1900 at 50 µM for 60 min. The final microsomal protein concentration in the suspension was 0.6 mg/mL in each case. The reaction buffer (100 mM phosphate buffer pH 7.4) also contained 1 mM nicotinamide adenine dinucleotide phosphate (NADPH), 5 mM MgCl2, 10 mM glucose-6-phosphate (G6P), and 2 IU/mL glucose-6-phosphate dehydrogenase (G6PD). The reaction was terminated by the addition of ice-cold acetonitrile (ACN) with the ratio of sample ACN volume = 1:2. The precipitated protein was removed by centrifugation at 10,000× g for 10 min, and the supernatants were used for subsequent analyses.
(§3) The determination of all analytes was carried out using an UPLC/MS/MS system, which consisted of an HPLC apparatus (SCIEX ExionLC^TM UPLC, Framigham, MA, USA) and a SCIEX Qtrap 4500 triple-quadrupole mass spectrometer (Framigham, MA, USA) equipped with a SCIEX Turbo V electrospray ionization source. The HPLC columns used were LiChrospher RP Select B (125 × 4.0 mm, 5.0 μm, C8 stationary phase). Next, 0.1% trifluoroacetic acid in ultra-purified water (A) and acetonitrile (B) were used as mobile phases for chromatographic separations applying a gradient elution. The HPLC gradient program was the following: between 0 and 10 min, a ratio of 70% A and 30% B; from 10 to 20 min, linearly increasing to a ratio of 50% A and 50% B; from 20 to 21 min, maintained at a ratio of 50% A and 50% B; from 21 to 22 min, linearly decreasing back to a ratio of 70% A and 30% B; and between 22 min and 30 min, maintained at a ratio of 70% A and 30% B. The run time was 30 min, the column temperature was adjusted to 35 °C, and the flow rate was 1 mL/min.

[7] = target: T2, CYP1A2; test: CYP1A2 fluorometric activity assay in cynomolgus monkey hepatic microsomes; format: in vitro ADME; set-up: cynomolgus monkey microsomal suspension (Primacyt, Schwerin, Germany, protein concentration: 5 mg/mL); tissue Primacyt, Schwerin, Germany; host or cells: liver (hepatic microsomes); conditions: for CYP1A2 in the cynomolgus monkey microsomal model: inhibitors at 50 µM
Experimental: as §1

[8] = 60 min microsomal stability assay (UPLC-MS/MS), beagle liver microsomes; format: in vitro ADME; conditions: beagle microsomes, 50 µM, 0.6 mg/mL protein, mean ± SD (n = 3)
Experimental: as §2, §3

[9] = 60 min microsomal stability assay (UPLC-MS/MS), cynomolgus monkey liver microsomes; format: in vitro ADME; conditions: monkey microsomes, 50 µM, 0.6 mg/mL protein, mean ± SD (n = 3)
Experimental: as §2, §3

[10] = inhibitors at 50 µM, vs untreated control

Structure (SMILES) | beagle hepatic microsomal CYP1A2 isoenzyme activity ([1]; reference inhibitor at 6 µM) | CYP1A2 activity in cynomolgus monkey hepatocytes [2] | CYP1A2 activity in rat hepatocytes [3] | rat hepatic microsomal CYP1A2 isoenzyme activity ([4]; reference inhibitor at 6 µM) | CYP1A2 activity in beagle hepatocytes [5] | depletion percentage of the parent compound [6] | IC50 [7] | CYP1A2 in the cynomolgus monkey microsomal model [7] | depletion percentage of the parent compound [8] | rat hepatic microsomal CYP1A2 isoenzyme activity [4, 10] | depletion percentage of the parent compound [9] | beagle hepatic microsomal CYP1A2 isoenzyme activity [1, 10]
O=c1cc(-c2ccccc2)oc2c1ccc1ccccc12 [α-naphthoflavone, reference compound] | significantly suppressed CYP1A2 activities | significantly suppress CYP1A2 activities | significantly suppress CYP1A2 activities | significantly suppressed CYP1A2 activities | significantly suppress CYP1A2 activities |  |  |  |  |  |  | 
COc1ccc(-c2cccc(S(=O)(=O)N[C@@H](Cc3cccc(C(=N)N)c3)C(=O)N3CCC(NC(=O)NC4CCCCC4)CC3)c2)c(OC)c1 [MI-463] |  |  |  |  |  | 15.1 ± 6.5% | 2400 ± 1400 nM | inhibited | 15.7 ± 8% | suppressed | 17.7 ± 4.6% | 
N=C(N)c1cccc(C[C@H](NS(=O)(=O)c2cccc(-c3cc(CO)ccc3Cl)c2)C(=O)N2CCC(CCNC(=O)NC3CCCCC3)CC2)c1 [MI-482] |  |  |  |  |  | 31.4 ± 1.1% | 210 ± 90 nM | inhibited | 39.3 ± 6% | did not inhibit CYP1A2 function | 15.1 ± 7.3% | reduced the activity of CYP1A2

Source: article PMC9027957, “Interspecies Comparisons of the Effects of Potential Antiviral 3-Amidinophenylalanine Derivatives on Cytochrome P450 1A2 Isoenzyme” (Veterinary Sciences, 2022)
